According to ChEMBL document CHEMBL5528088, “Design and Synthesis of Cyclolipopeptide Mimics of Dysoxylactam A and Evaluation of the Reversing Potencies against P-Glycoprotein-Mediated Multidrug Resistance” (J Med Chem, 2024):
Counter-ions that a name gives are not always drawn. Active and inactive are the calls of the source. The calls are words filed in the database; no cut-off is given here.

What was measured:
KBv200 [1] = experiment: Inhibition of cell proliferation in human KBv200 cells assessed as inhibition of VNR at 10 uM incubated for 72 hrs in presence of VNR by SRB assay relative to control; type: functional
KBv200 [2] = experiment: Reversal fold, ratio of VNR IC50 to VNR IC50 in presence of test compound for human KBv200 cells incubated for 72 hrs by SRB assay; type: functional
KBv200 [3] = experiment: Cytotoxicity against human KBv200 cells at 10 uM incubated for 72 hrs by SRB assay relative to control; type: functional
KBv200 [4] = experiment: Reversal effect on P-gp-mediated multidrug resistance in human KBv200 cells assessed as inhibition of cell proliferation incubated for 72 hrs by SRB assay; type: functional, cell-based; settings: KBv200, 72 h
KBv200 [5] = experiment: Inhibition of calcein AM uptake in human KBv200 cells at 10 uM incubated for 10 mins by flow cytometry; type: functional, cell-based
KBv200 [6] = experiment: Inhibition of Rho-123 uptake in human KBv200 cells at 10 uM incubated for 10 mins by flow cytometry; type: functional, cell-based
KBv200 [7] = experiment: Inhibition of ADR uptake in human KBv200 cells at 10 uM incubated for 10 mins by flow cytometry; type: functional, cell-based
NCI/ADR-RES = experiment: Reversal effect on P-gp-mediated multidrug resistance in human NCI/ADR-RES cells assessed as inhibition of cell proliferation incubated for 72 hrs by SRB assay; type: functional, cell-based

SMILES | inhibition at 10 µM (KBv200 [1]) [%] | Ratio IC50 (KBv200 [2]) | Activity (KBv200 [3]) [%] | also measured
CC[C@H](C)[C@@H]1NC(=O)[C@H](C(C)C)NC(=O)CCCCCCCC(=O)N[C@@H](Cc2ccccc2)COC1=O | 91.3 | 20.8 | 21.8 | –
CC(C)[C@@H]1NC(=O)CCCCCCCC(=O)N[C@@H](C)COC1=O | 20.7 | – | – | –
CC(C)[C@@H]1NC(=O)CCCCCCCC(=O)NCCCCOC1=O | 15.7 | – | – | –
CC(C)[C@@H]1NC(=O)CCCCCCCC(=O)N[C@@H](C(C)(C)C)COC1=O | 53.6 | – | – | –
CC[C@H](C)[C@@H]1NC(=O)[C@H](C(C)C)NC(=O)CCCCCCCC(=O)Nc2ccccc2COC1=O | 90.9 | 7.3 | 19.8 | –
CC(C)[C@@H]1NC(=O)CCCCCCCC(=O)NCCCCCCOC1=O | 21.1 | – | – | –
CC(=O)O[C@H]1C(=O)[C@@]2(C)[C@H]([C@H](OC(=O)c3ccccc3)[C@]3(O)C[C@H](OC(=O)[C@H](O)[C@@H](NC(=O)c4ccccc4)c4ccccc4)C(C)=C1C3(C)C)[C@]1(OC(C)=O)CO[C@@H]1C[C@@H]2O [PACLITAXEL] | – | – | – | IC50 (KBv200 [4]): 238 nM
CC(C)[C@@H]1NC(=O)CCCCCCCCC(=O)N[C@@H](Cc2ccccc2)COC1=O | 85.4 | 31.7 | 2.2 | –
CC(C)[C@@H]1NC(=O)CCCCCCCC(=O)N[C@@H](Cc2ccccc2)COC(=O)CNC1=O | 11 | – | – | –
CC[C@H](C)[C@@H]1NC(=O)[C@H](C(C)C)NC(=O)CCCCCCCC(=O)NCCCOC1=O | 44.8 | – | – | –
CC(C)[C@@H]1NC(=O)CCCCCCCC(=O)N[C@@H](C(C)C)COC1=O | 34.4 | – | – | –
CC(C)[C@@H]1NC(=O)CCCCCCCC(=O)NCC(C)(C)COC1=O | 38.8 | – | – | –
CC[C@H](C)[C@@H]1NC(=O)[C@H](C(C)C)NC(=O)CCCCCCC(=O)Nc2cccc(c2)COC1=O | 83.5 | 10.2 | 4.4 | –
CC[C@H](C)[C@@H]1NC(=O)[C@H](C(C)C)NC(=O)CCCCCCCC(=O)N[C@@H]2CC[C@H](C2)OC1=O | 72.2 | 1.4 | 20.5 | –
CC[C@H](C)[C@@H]1NC(=O)[C@H](C(C)C)NC(=O)CCCCCCCC(=O)NCCOC1=O | 51.1 | – | – | –
CC(C)[C@@H]1NC(=O)CCOCCOCCOCCC(=O)N[C@@H](Cc2ccccc2)COC1=O | 0.3 | – | – | –
CC[C@H](C)[C@@H]1NC(=O)[C@H](C(C)C)NC(=O)CCCCCCCC(=O)NCc2cccc(c2)OC1=O | 6.4 | – | – | –
CCC[C@H]1COC(=O)[C@H](C(C)C)NC(=O)CCCCCCCC(=O)N1 | 46.3 | – | – | –
CC[C@H](C)[C@@H]1NC(=O)[C@H](C(C)C)NC(=O)CCCCCC(=O)N[C@@H](Cc2ccccc2)COC1=O | 25.7 | – | – | –
CC[C@H](C)[C@@H]1NC(=O)[C@H](C(C)C)NC(=O)CCCCCCCCC(=O)Nc2cccc(c2)COC1=O | 77.6 | 7.3 | 10.9 | –
CC[C@H](C)[C@@H]1NC(=O)[C@H](C(C)C)NC(=O)CCCCCCCC(=O)NCCCCOC1=O | 54 | – | – | –
CC(C)[C@@H]1NC(=O)CCCCCCCC(=O)Nc2cccc(c2)OC1=O | 12.8 | – | – | –

SMILES | inhibition at 10 µM (KBv200 [1]) [%] | Ratio IC50 (KBv200 [2]) | Activity (KBv200 [3]) [%] | also measured
COc1ccc(CCN(C)CCCC(C#N)(c2ccc(OC)c(OC)c2)C(C)C)cc1OC (centres undefined) [VERAPAMIL] | 97.5 | 59.5 | 5 | inhibition (KBv200 [5]): inactive; inhibition (KBv200 [6]): Active; inhibition (KBv200 [7]): inactive
CC(C)[C@@H]1NC(=O)CCCCCC(=O)N[C@@H](Cc2ccccc2)COC1=O | 42.6 | – | – | –
CC(C)[C@@H]1NC(=O)CCCCCCCC(=O)N[C@H](c2ccccc2)CCOC1=O | 30.1 | – | – | –
CC[C@H](C)[C@@H]1NC(=O)[C@H](C(C)C)NC(=O)CCCCCCCC(=O)Nc2cccc(c2)COC1=O | 92.3 | 26.8 | 31 | –
CC(C)[C@@H]1NC(=O)CCCCCCCC(=O)N[C@@H](Cc2ccccc2)COC(=O)CCNC1=O | 12 | – | – | –
CC(C)[C@@H]1NC(=O)CCCCCCCC(=O)N[C@@H](Cc2ccccc2)COC(=O)Cc2ccc(cc2)NC1=O | 35.9 | – | – | –
CC(C)[C@@H]1NC(=O)CCCCCCCC(=O)N[C@@H](Cc2ccccc2)COC(=O)[C@H](C(C)C)NC1=O | 91.1 | 7.9 | 15.8 | –
CC[C@H](C)[C@@H]1NC(=O)[C@H](C(C)C)NC(=O)CCCCCCCC(=O)NCC(F)(F)COC1=O | 73.4 | 2.3 | 10.3 | –
CC(C)[C@@H]1NC(=O)CCCCCCCC(=O)N[C@@H](Cc2ccccc2)COC1=O | 80.6 | 26.1 | 0 | –
CC[C@H](C)[C@@H]1NC(=O)[C@H](C(C)C)NC(=O)CCCCCC(=O)Nc2cccc(c2)COC1=O | 14.5 | – | – | –
CC[C@H](C)[C@@H]1NC(=O)[C@H](C(C)C)NC(=O)CCCCCCC(=O)N[C@@H](Cc2ccccc2)COC1=O | 28.7 | – | – | –
CC(C)[C@@H]1NC(=O)CCCCCCC(=O)N[C@@H](Cc2ccccc2)COC1=O | 9.3 | – | – | –
CC(C)[C@@H]1NC(=O)CCCCCCCC(=O)N[C@@H](Cc2ccccc2)COC(=O)CCCNC1=O | 26.8 | – | – | –
CC(C)[C@@H]1NC(=O)CCCCCCCCCCCCC(=O)N[C@@H](Cc2ccccc2)COC1=O | 97.3 | 99.2 | 4.4 | –
CC(C)[C@@H]1NC(=O)CCCCCCCC(=O)Nc2ccccc2OC1=O | 14.5 | – | – | –
CC(C)[C@@H]1NC(=O)CCCCCCCCCCCC(=O)N[C@H](Cc2ccccc2)COC1=O | 75.4 | 51.3 | 17 | –
CC(C)[C@@H]1NC(=O)CCCCCCCCCCC(=O)N[C@@H](Cc2ccccc2)COC1=O | 97.6 | 85 | 5 | –
CC(C)[C@@H]1NC(=O)CCCCCCCCCC(=O)N[C@@H](Cc2ccccc2)COC1=O | 93.4 | 55.1 | 1.8 | –
CC(C)[C@@H]1NC(=O)CCCCCCCC(=O)N[C@@H](c2ccccc2)[C@@H](c2ccccc2)OC1=O | 14.1 | – | – | –
CC(C)[C@@H]1NC(=O)CCCCCCCC(=O)N[C@@H](c2ccccc2)COC1=O | 50.2 | – | – | –
CSCC[C@H]1COC(=O)[C@H](C(C)C)NC(=O)CCCCCCCC(=O)N1 | 34 | – | – | –
COc1cccc2c1C(=O)c1c(O)c3c(c(O)c1C2=O)C[C@@](O)(C(=O)CO)C[C@@H]3O[C@H]1C[C@H](N)[C@H](O)[C@H](C)O1 [DOXORUBICIN HYDROCHLORIDE] | – | – | – | IC50 (NCI/ADR-RES): 26000 nM; IC50 (KBv200 [4]): 373 nM

SMILES | inhibition at 10 µM (KBv200 [1]) [%] | Ratio IC50 (KBv200 [2]) | Activity (KBv200 [3]) [%] | also measured
CC(C)C[C@H]1COC(=O)[C@H](C(C)C)NC(=O)CCCCCCCC(=O)N1 | 48.9 | – | – | –
CC(C)[C@@H]1NC(=O)CCCCCCCC(=O)N[C@H]2[C@@H]3C[C@@H]4C[C@H]2C[C@@](C4)(C3)OC1=O | 14.1 | – | – | –
CC(C)[C@@H]1NC(=O)CCCCCCCC(=O)N[C@@H](Cc2ccccc2)COC(=O)[C@H](Cc2ccccc2)NC1=O | 88.9 | 2.7 | 0 | –
CC[C@H](C)[C@@H]1NC(=O)[C@H](C(C)C)NC(=O)CCCCCCCCC(=O)N[C@@H](Cc2ccccc2)COC1=O | 89.7 | 22.2 | 8.6 | –
CC(C)[C@@H]1NC(=O)CCCCCCCC(=O)NCCOC1=O | 9.5 | – | – | –
CC(C)[C@@H]1NC(=O)CCCCCCCC(=O)NCCCOC1=O | 15 | – | – | –
CC(C)[C@@H]1NC(=O)CCCCCCCC(=O)Nc2ccccc2COC1=O | 29.7 | – | – | –
CC(C)[C@@H]1NC(=O)CCCCCCCC(=O)N[C@@H](Cc2ccccc2)COC(=O)[C@H](C)NC1=O | 55.5 | – | – | –
CC(C)[C@H]1NC(=O)CCCCCCCCCCCC(=O)N[C@H](Cc2ccccc2)COC1=O | 91.5 | 114.5 | 15.8 | –
CC[C@H](C)[C@@H]1NC(=O)[C@H](C(C)C)NC(=O)CCCCCCCC(=O)Nc2cc(F)cc(c2)COC1=O | 90.7 | 19.3 | 4.6 | –
CC[C@H](C)[C@H]1COC(=O)[C@H](C(C)C)NC(=O)CCCCCCCC(=O)N1 | 51.2 | – | – | –
CC[C@H](C)[C@@H]1NC(=O)[C@H](C(C)C)NC(=O)CCCCCCCC(=O)N[C@@H](C(C)C)COC1=O | 63.6 | 1.9 | 18.6 | –
CC(C)[C@@H]1NC(=O)CCCCCCCC(=O)Nc2cccc(c2)COC1=O | 13.1 | – | – | –
CC(C)[C@@H]1NC(=O)CCCCCCCC(=O)NCCCCCOC1=O | 26.6 | – | – | –
COc1cc2c(cc1OC)CN(CCc1ccc(NC(=O)c3cc(OC)c(OC)cc3NC(=O)c3cnc4ccccc4c3)cc1)CC2 | – | – | – | inhibition (KBv200 [5]): Active; inhibition (KBv200 [6]): Active; inhibition (KBv200 [7]): Active
CC[C@H](C)[C@@H]1NC(=O)[C@H](C(C)C)NC(=O)CCCCCCCC(=O)N[C@@H](C)COC1=O | 49 | – | – | –
CC(C)C1NC(=O)CCCCCCCC(=O)N[C@@]23C[C@H]4C[C@@H](C2)C[C@](C4)(C3)OC1=O (some centres undefined) | 42.9 | – | – | –
CC(C)[C@@H]1NC(=O)CCCCCCCC(=O)N[C@@H](Cc2ccccc2)COC(=O)Cc2cccc(c2)NC1=O | 81.6 | 6.5 | 0 | –
CC(C)[C@H]1NC(=O)CCCCCCCCCCCC(=O)N[C@@H](Cc2ccccc2)COC1=O | 68.3 | 57.2 | 16.7 | –
CC(C)[C@@H]1NC(=O)CCCCCCCC(=O)NC(C)(C)CCOC1=O | 23.1 | – | – | –
